Here are results for 46 compounds from patent publication US12583858B2 (Genentech, Inc., priority 2015, dated 2026).

Structures are written as SMILES. pEC50: −log10 of the molar value.

This assay deals with T1, TDO2 (Homo sapiens, UniProt P48775).
T1 construct: decreased levels of NFK in SW48 cells (high TDO expressing cells)
T1 sequence (P48775 whole entry): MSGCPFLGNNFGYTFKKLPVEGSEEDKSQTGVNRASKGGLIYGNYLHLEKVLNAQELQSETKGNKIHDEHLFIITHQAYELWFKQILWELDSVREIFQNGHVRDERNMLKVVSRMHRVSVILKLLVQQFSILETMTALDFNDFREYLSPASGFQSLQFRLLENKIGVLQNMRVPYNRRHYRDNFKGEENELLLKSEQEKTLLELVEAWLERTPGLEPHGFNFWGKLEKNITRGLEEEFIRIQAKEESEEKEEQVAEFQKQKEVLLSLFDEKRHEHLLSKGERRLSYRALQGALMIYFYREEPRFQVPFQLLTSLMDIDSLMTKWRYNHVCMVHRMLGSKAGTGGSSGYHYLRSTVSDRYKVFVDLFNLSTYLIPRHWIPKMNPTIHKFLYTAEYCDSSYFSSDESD
The assay is described as follows: TDO2 cell assay (NFK GreenScreen, SW48 cells). As to conditions: SW48 cells (high TDO expressing), 200 uM tryptophan, 24 hours; Table 3; read-out: TDO2 Cell Fluor EC50. It counts as cell-based.
On to `CC(C)C(O)C1c2ccc(F)cc2-c2cncn21` (single isomer, unassigned) [Example 135d], for which the pEC50 is 6.89. As to `OC1c2cccn2CCC1C1c2ccccc2-c2cncn21` (single isomer, unassigned) [Example 136c], the pEC50 was 5.17. In the case of `OC1c2cccn2CCC1C1c2ccccc2-c2cncn21` (single isomer, unassigned) [Example 136d], the negative logarithm of the EC50 (pEC50) was 4.82.

On to `OC1c2cccn2CCC1C1c2ccccc2-c2cncn21` (single isomer, unassigned) [Example 136e], for which the pEC50 is 6.19. Consider `OC1c2cccn2CCC1C1c2ccccc2-c2cncn21` (single isomer, unassigned) [Example 136g], for which the negative-log EC50 (pEC50) is 6.70. Take `CCC(O)C1c2ccccc2-c2cncn21` (single isomer, unassigned) [Example 137a]: the pEC50 was below 4.60. Consider `CCC(O)C1c2ccccc2-c2cncn21` (single isomer, unassigned) [Example 137c], for which the pEC50 is 6.70. As to `O[C@@H](C1CCOCC1)[C@H]1c2ccccc2-c2cncn21` (single isomer, unassigned) [Example 138b], the pEC50 was below 4.60. Consider `O[C@@H](C1CCOCC1)[C@@H]1c2ccccc2-c2cncn21` (single isomer, unassigned) [Example 138c], for which the pEC50 was below 4.60.

Turning to `O[C@@H](C1CCOCC1)[C@@H]1c2ccccc2-c2cncn21` (single isomer, unassigned) [Example 138d], the pEC50 is 5.00. For the compound `Cn1cc2c(n1)C(O)C(C1c3ccccc3-c3cncn31)CC2` (single isomer, unassigned) [Example 139-1a], the pEC50 is 5.28.

As for `Cn1cc2c(n1)C(O)C(C1c3ccccc3-c3cncn31)CC2` (single isomer, unassigned) [Example 139-1b], the pEC50 was below 4.60. As to `Cn1cc2c(n1)[C@@H](O)[C@@H]([C@@H]1c3ccccc3-c3cncn31)CC2` (single isomer, unassigned) [Example 139-1c], the pEC50 was below 4.60. The same measure for `Cn1cc2c(n1)[C@@H](O)[C@@H]([C@@H]1c3ccccc3-c3cncn31)CC2` (single isomer, unassigned) [Example 139-1d]: 6.15; for `Cn1cc2c(n1)C(O)C(C1c3ccccc3-c3cncn31)CC2` (single isomer, unassigned) [Example 139-1e]: below 4.60; for `Cn1cc2c(n1)C(O)C(C1c3ccccc3-c3cncn31)CC2` (single isomer, unassigned) [Example 139-1f]: 6.68.

On to `OC1c2cnnn2CCC1C1c2ccccc2-c2cncn21` (single isomer, unassigned) [Example 139a], for which the pEC50 was below 4.60. For the compound `OC1c2cnnn2CCC1C1c2ccccc2-c2cncn21` (single isomer, unassigned) [Example 139b], the pEC50 was 6.00. On to `NC(=O)C1CCC(O)(C2c3ccccc3-c3cncn32)CC1` (single isomer, unassigned) [Example 140a], for which the pEC50 was below 4.60. The same measure for `NC(=O)C1CCC(O)(C2c3ccccc3-c3cncn32)CC1` (single isomer, unassigned) [Example 140b]: below 4.60.

With `NC(=O)C1CCC(O)(C2c3ccccc3-c3cncn32)CC1` (single isomer, unassigned) [Example 140c], the pEC50 is below 4.60. As to `NC(=O)C1CCC(O)(C2c3ccccc3-c3cncn32)CC1` (single isomer, unassigned) [Example 140d], the pEC50 is 5.46. On to `OC1(C2c3ccccc3-c3cncn32)CCCc2ccncc21` (single isomer, unassigned) [Example 141a], for which the pEC50 was 4.77. Take `OC1(C2c3ccccc3-c3cncn32)CCCc2ccncc21` (single isomer, unassigned) [Example 141b]: the pEC50 is 5.42. With `OC1(C2c3ccccc3-c3cncn32)CCCc2ccncc21` (single isomer, unassigned) [Example 141c], the pEC50 is below 4.60. For `OC1(C2c3ccccc3-c3cncn32)CCCc2ccncc21` (single isomer, unassigned) [Example 141d], the pEC50 was below 4.60. As to `CS(=O)(=O)c1ccc2c(c1)[C@@H](O)[C@H]([C@H]1c3ccccc3-c3cncn31)CC2` (single isomer, unassigned) [Example 142a], the negative logarithm of the EC50 (pEC50) was 7.43. On to `CS(=O)(=O)c1ccc2c(c1)[C@@H](O)[C@H]([C@H]1c3ccccc3-c3cncn31)CC2` (single isomer, unassigned) [Example 142b], for which the pEC50 is 5.23. With `CC(O)(c1ncc[nH]1)C1c2ccccc2-c2cncn21` (single isomer, unassigned) [Example 143a], the pEC50 is below 4.60.

Turning to `CC(O)(c1ncc[nH]1)C1c2ccccc2-c2cncn21` (single isomer, unassigned) [Example 143b], the pEC50 is below 4.60. As to `CC(O)(c1ncc[nH]1)C1c2ccccc2-c2cncn21` (single isomer, unassigned) [Example 143c], the pEC50 was 4.80. Regarding `CC(O)(c1ncc[nH]1)C1c2ccccc2-c2cncn21` (single isomer, unassigned) [Example 143d], the pEC50 was below 4.60. On to `OC1(C2c3ccccc3-c3cncn32)CCCOC1` (single isomer, unassigned) [Example 144a], for which the pEC50 is 6.00. The figure for `OC1(C2c3ccccc3-c3cncn32)CCCOC1` (single isomer, unassigned) [Example 144b] is below 4.60; for `OC1(C2c3ccccc3-c3cncn32)CCCOC1` (single isomer, unassigned) [Example 144c] it is 5.68; for `OC1(C2c3ccccc3-c3cncn32)CCCOC1` (single isomer, unassigned) [Example 144d] it is below 4.60.

`N#CC1CCC(O)(C2c3ccccc3-c3cncn32)CC1` (single isomer, unassigned) [Example 145a]: the pEC50 was 5.38. On to `N#CC1CCC(O)(C2c3ccccc3-c3cncn32)CC1` (single isomer, unassigned) [Example 145b], for which the pEC50 is 5.96. With `N#CC1CCC(O)(C2c3ccccc3-c3cncn32)CC1` (single isomer, unassigned) [Example 145c], the pEC50 is 4.72.

For the compound `N#CC1CCC(O)(C2c3ccccc3-c3cncn32)CC1` (single isomer, unassigned) [Example 145d], the pEC50 is below 4.60. For the compound `OC1c2nncn2CCC1C1c2ccccc2-c2cncn21` (single isomer, unassigned) [Example 146-1a], the pEC50 is below 4.60. `OC1c2nncn2CCC1C1c2ccccc2-c2cncn21` (single isomer, unassigned) [Example 146-1b]: the pEC50 is 5.13. Take `O[C@@H]1c2nncn2CC[C@H]1[C@H]1c2ccccc2-c2cncn21` (single isomer, unassigned) [Example 146-1c]: the pEC50 was below 4.60. In the case of `OC1c2nncn2CCC1C1c2ccccc2-c2cncn21` (single isomer, unassigned) [Example 146-1d], the pEC50 was 4.92.

In the case of `OC1c2cnnn2CCC1C1c2ccccc2-c2cncn21` (single isomer, unassigned) [Example 146a], the pEC50 is 6.48. As for `OC1c2cnnn2CCC1C1c2ccccc2-c2cncn21` (single isomer, unassigned) [Example 146b], the pEC50 is below 4.60.
